Experiments:
P. falciparum = experiment: In vivo antimalarial efficacy in P. falciparum-infected SCID mice engrafted with human erythrocytes; conditions: SCID mouse, orally once a day for 4 d
Text: The l ev el of each comp ound i n mouse bl ood was determi ned by UPLC -MS/MS as previously re port e d (18). Pharmacokinetic parameters were derived from the blood c oncent ration time curve usi ng PKsol uti ons software v 2.0 (Summi t Research Servi ces, USA).
The mi ce were i ntrav enous l y i nfected with 2×107 P. fa l ci p a rum Pf3D700 87/ N9-infected erythrocytes (day 0). On day 3 after infection, mice (n=2) were rand oml y al l ocated to treatments that were admi nis tered once a day for 4 cons ecuti v e day s by oral g av ag e at 10 ml/k g.
The compo und c onc entrati on v ers us ti me data were anal yzed by non-compartmental anal ysi s (NCA) usi ng Phoeni xR Ve rsi on 6.3 (Pha rsi ght Corporati on, M ountai n Vi ew, CA, USA).
Femal e i mmunodefi ci ent NOD-sc i d I L-2Rγnull mi ce (NSG) (Charl es Ri v er, France) of 25-28 g r b ody w ei g ht w ere hou s ed i n The A rt of D i s cov ery ani mal faci li t y at BIC

[1] = Hepatocyte stability, mouse; type: in vitro ADME
Method: SUPPLEMENTARY INFORMATION where V (ml/mg protein) is the incubation volume/mg protein added (0.5) and microsomal protein yield is taken as being 52.5 mg protein per g liver. Verapami l (0. 5 µ M ) w as us ed as a pos i t i v e cont rol to confirm ac ceptable assay performance. Ex peri ments were performed us i ng a s i ngl e ti me-cours e […]
4.5 He pat ocy t e s t abilit y
Cryopreserved hepatocytes were used to take non-CYP mediated Phase I and Phase II enzymes into […]
than those determined using li v e r mi crosomes or other subcellular liver fractions and could be mo re predi ct i v e of a met abol i c rat e det ermi ned in vivo.
Cryopreserved mouse (batch MC539) and huma n (batch HU E50H) hepatocytes were supplied by ThermoFi sher Sci enti fi c, Pai sl ey, UK and Xenotech, LLC, respectively. Cryopreserved hepatocytes were rapidly thawed in a pre-heat ed w at er bat h at 37 °C before ad di ng to 50 ml of pre-warmed CHRM medi a (ThermoFi sher Sci enti fi c, Paisley, UK) and mi xed gentl y. […] […] 5 mi l li on v i abl e cel l s /ml i n s uppl emented W ME. Onl y s us pens i ons whi ch ac hi ev ed >80% pos t-thaw viability were us ed i n ex peri ment s . […]
DMSO and 0.25 million cells/ml. […]

Pf(K1) = experiment: Drug resistant P. falciparum K1, [3H]-hypoxanthine incorporation; type: cell-based; conditions: Plasmodium falciparum, chloroquine-resistant
Text: 3.2 Cytotoxicity Studies (Dundee)
In vi t ro cy totox i ci ty s tudies can be ca rri ed out us i ng Hep G 2 (Human C aucas i an hepatocy te ca rci noma, ECACC cat. no. 850 114 30) us ed as i ndi cators f or g eneral mammal i an cel l tox i ci ty . […]
3.3 In vitro Cell Assay D ata Analysis (Du ndee) […]
as 0%. Qual i ty control c ri teri a for passi ng pl ates were as fol l ow s : Z’ > 0.
< 15 . T he f ormula used to calculate Z’ is 1- 3´ (St D e v _ hi gh + St D e v_ low) . […]
Al l EC50 Curve fitti ng was undertaken usi ng XLFi t versi on 4.2 usi ng Model 205 wi th the foll owi ng 4 paramet ri c equat i on: A + (?-A) ,where A=% i nhi bi ti on at bo ttom, B=% i nhi bi ti on at top, C= EC , […]
D= slope, x= inhibitor concentration a nd y= % inhibition. […]
was fixed to 100 only when at least 50% of inhibition was reached. […]
Hoffmann-La Ro che Ltd) a nd resi stant strai ns K1 and TM90C2B (fr om the Malaria Research an d Reference Reag ent Res ou rce C enter, accu rate d es cri pti ons of the g eneti c backg roun ds of thes e strains can be obtained at http://www.beiresources.org) were cultivated in a variation of the medium prev i ous l y des cri bed (5, 6), c onsi sti ng of RPMI 16 40 su ppl emented wi th 0.5% ALBUMAX® II, 25 m M Hepes , 25 mM NaHC O3 (pH 7. […] The re s ul t s were recorded and expressed as a percentage of the untreated controls. […]

## O=C(NCC1(O)CCC(F)(F)CC1)c1cc(=O)c2cc(F)ccc2o1 [Compound 5]
P. falciparum
  AUCED90, estimated daily exposure in blood reducing parasitemia by 90% at day 5: 11,000 ng⋅h⋅ml^−1⋅d^−1
  ED90, daily oral dose reducing parasitemia by 90% at day 5: 1.5 mg⋅kg^−1
[1]
  Hepatocyte stability CLint: 0.5 (mouse), <0.5 (human) mL⋅min^−1⋅g^−1
Pf(K1)
  EC50: 510 nM

Source: publication PMC6452685, “Lysyl-tRNA synthetase as a drug target in malaria and cryptosporidiosis” (Proceedings of the National Academy of Sciences of the …, 2019)
